# Laboratory results from ChEMBL document CHEMBL4000192, “Identification and optimization of a novel series of indoleamine 2,3-dioxygenase inhibitors” (Bioorg Med Chem Lett, 2017).
# pIC50: −log10 of the molar value.
# Test system: HeLa
# Assay: Cytotoxic activity against human HeLa cells by […]
# Type: cell-based
# Conditions: not given
row,Structure (SMILES),pIC50
1,CC(C)(C)c1ccccc1Oc1ccc(-c2cccc(C(=O)O)c2)cc1NC(=O)Nc1ccccc1,< 4.52
2,CC(C)(C)c1ccccc1Oc1ccc(-c2cccc(C(=O)O)c2)cc1NC(=O)Nc1ccc(Br)cc1,< 4.52
3,COc1ccc(-c2ccc(Oc3cccc4c3CCCC4)c(NC(=O)Nc3ccc(C)cc3)c2)cc1C(=O)O,< 4.52
4,CCCc1ccccc1Oc1ccc(-c2ccc(OC)c(C(=O)O)c2)cc1NC(=O)Nc1ccc(C)cc1,< 4.52
5,COc1ccc(-c2ccc(Oc3cccc(C(C)(C)C)c3)c(NC(=O)Nc3ccc(C)cc3)c2)cc1C(=O)O,< 4.52
6,COc1ccccc1Oc1ccc(-c2ccc(OC)c(C(=O)O)c2)cc1NC(=O)Nc1ccc(C)cc1,< 4.52
7,COc1ccc(-c2ccc(Oc3ccccc3C(C)C)c(NC(=O)Nc3ccc(C)cc3)c2)cc1C(=O)O,< 4.52
8,CCOc1ccc(-c2ccc(Oc3ccccc3C(C)(C)C)c(NC(=O)Nc3ccc(C)cc3)c2)cc1C(=O)O,< 4.52
9,COc1ccc(-c2ccc(Oc3cccc4c3CCC4)c(NC(=O)Nc3ccc(C)cc3)c2)cc1C(=O)O,< 4.52
10,COc1ccc(-c2ccc(Oc3cccc(C)c3C)c(NC(=O)Nc3ccc(C)cc3)c2)cc1C(=O)O,< 4.52
11,COc1ccc(-c2ccc(Oc3ccccc3C(C)(C)C)c(NC(=O)Nc3ccc(C)cc3)c2)cc1C(=O)O,< 4.52
12,Cc1ccccc1NC(=O)Nc1cc(-c2cccc(C(=O)O)c2)ccc1Oc1ccccc1C(C)(C)C,< 4.52
13,CC(C)(C)c1ccccc1Oc1ccc(-c2cccc(C(=O)O)c2)cc1NC(=O)Nc1ccc(Cl)cc1,< 4.52
14,COc1ccc(-c2ccc(Oc3cccc4c3CCCC4)c(NC(=O)Nc3ccccc3Cl)c2)cc1C(=O)O,< 4.52
15,COc1ccc(-c2ccc(Oc3ccccc3C)c(NC(=O)Nc3ccc(C)cc3)c2)cc1C(=O)O,< 4.52
16,COc1ccc(-c2ccc(Oc3ccccc3Cl)c(NC(=O)Nc3ccc(C)cc3)c2)cc1C(=O)O,< 4.52

# Test system: not listed separately
# Assay: Metabolic stability in rat liver microsomes assessed as parent compound remaining at 0.5 uM after 10 mins
# Type: ADME, microsome
# Conditions: read-out: Stability
row,"remaining at 10 min, 0.5 µM",Structure (SMILES)
1,95%,COc1ccc(-c2ccc(Oc3cccc4c3CCCC4)c(NC(=O)Nc3ccc(C)cc3)c2)cc1C(=O)O
2,83%,COc1ccc(-c2ccc(Oc3cccc4c3CCCC4)c(NC(=O)Nc3ccccc3Cl)c2)cc1C(=O)O

# Test system: not listed separately
# Assay: Metabolic stability in human liver microsomes assessed as parent compound remaining at 0.5 uM after 10 mins
# Type: ADME, microsome
# Conditions: read-out: Stability
row,"remaining at 10 min, 0.5 µM",Structure (SMILES)
1,100%,COc1ccc(-c2ccc(Oc3cccc4c3CCCC4)c(NC(=O)Nc3ccc(C)cc3)c2)cc1C(=O)O
2,74%,COc1ccc(-c2ccc(Oc3cccc4c3CCCC4)c(NC(=O)Nc3ccccc3Cl)c2)cc1C(=O)O

# Biological target: Indoleamine 2,3-dioxygenase 1 (Homo sapiens, UniProt P14902)
# Assay: Inhibition of IDO1 in IFN-gamma stimulated human HeLa cells assessed as inhibition of kynurenine production preincubated with cells followed by IFN-gamma addition measured after 20 hrs
# Type: cell-based
# Conditions: not given
# Chain of Indoleamine 2,3-dioxygenase 1 (P14902 whole entry): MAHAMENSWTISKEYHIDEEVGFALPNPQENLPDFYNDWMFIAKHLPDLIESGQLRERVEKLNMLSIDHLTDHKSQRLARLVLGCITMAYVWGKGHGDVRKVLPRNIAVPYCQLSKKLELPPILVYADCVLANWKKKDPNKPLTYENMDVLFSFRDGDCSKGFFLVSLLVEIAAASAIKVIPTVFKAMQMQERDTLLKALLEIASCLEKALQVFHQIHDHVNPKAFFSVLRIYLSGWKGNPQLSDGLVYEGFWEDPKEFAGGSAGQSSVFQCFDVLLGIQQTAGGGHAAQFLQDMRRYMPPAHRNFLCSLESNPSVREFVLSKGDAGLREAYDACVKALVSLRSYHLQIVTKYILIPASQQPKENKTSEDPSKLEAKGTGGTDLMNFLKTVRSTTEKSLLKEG
row,pIC50,Structure (SMILES)
1,5.82,CC(C)(C)c1ccccc1Oc1ccc(-c2cccc(C(=O)O)c2)cc1NC(=O)Nc1ccccc1
2,7.00,COc1ccc(-c2ccc(Oc3cccc4c3CCCC4)c(NC(=O)Nc3ccc(C)cc3)c2)cc1C(=O)O
3,6.47,COc1ccc(-c2ccc(Oc3ccccc3C(C)C)c(NC(=O)Nc3ccc(C)cc3)c2)cc1C(=O)O
4,6.46,COc1ccc(-c2ccc(Oc3ccccc3C(C)(C)C)c(NC(=O)Nc3ccc(C)cc3)c2)cc1C(=O)O
5,6.00,Cc1ccccc1NC(=O)Nc1cc(-c2cccc(C(=O)O)c2)ccc1Oc1ccccc1C(C)(C)C
6,7.66,COc1ccc(-c2ccc(Oc3cccc4c3CCCC4)c(NC(=O)Nc3ccccc3Cl)c2)cc1C(=O)O

# Biological target: Cytochrome P450 2C19 (Homo sapiens, UniProt P33261)
# Assay: Inhibition of CYP2C19 (unknown origin)
# Type: ADME
# Conditions: not given
# Chain of Cytochrome P450 2C19 (P33261 whole entry): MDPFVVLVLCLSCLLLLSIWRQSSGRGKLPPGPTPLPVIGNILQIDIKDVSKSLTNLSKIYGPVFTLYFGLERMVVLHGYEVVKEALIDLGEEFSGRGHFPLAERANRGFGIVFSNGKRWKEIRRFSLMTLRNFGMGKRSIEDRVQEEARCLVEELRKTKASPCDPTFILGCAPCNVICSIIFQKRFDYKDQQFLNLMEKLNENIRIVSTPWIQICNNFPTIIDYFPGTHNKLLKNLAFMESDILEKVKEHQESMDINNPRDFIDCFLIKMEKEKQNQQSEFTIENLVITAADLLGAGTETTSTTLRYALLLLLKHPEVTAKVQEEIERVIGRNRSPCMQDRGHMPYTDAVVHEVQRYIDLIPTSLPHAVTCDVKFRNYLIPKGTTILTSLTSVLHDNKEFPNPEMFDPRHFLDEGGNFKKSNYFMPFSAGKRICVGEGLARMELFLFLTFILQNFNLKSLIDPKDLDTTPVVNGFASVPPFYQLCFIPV
row,pIC50,Structure (SMILES)
1,< 5.52,COc1ccc(-c2ccc(Oc3cccc4c3CCCC4)c(NC(=O)Nc3ccccc3Cl)c2)cc1C(=O)O

# Biological target: T1, Cytochrome P450 1A2 (Homo sapiens, UniProt P05177)
# T1 sequence (P05177 whole entry): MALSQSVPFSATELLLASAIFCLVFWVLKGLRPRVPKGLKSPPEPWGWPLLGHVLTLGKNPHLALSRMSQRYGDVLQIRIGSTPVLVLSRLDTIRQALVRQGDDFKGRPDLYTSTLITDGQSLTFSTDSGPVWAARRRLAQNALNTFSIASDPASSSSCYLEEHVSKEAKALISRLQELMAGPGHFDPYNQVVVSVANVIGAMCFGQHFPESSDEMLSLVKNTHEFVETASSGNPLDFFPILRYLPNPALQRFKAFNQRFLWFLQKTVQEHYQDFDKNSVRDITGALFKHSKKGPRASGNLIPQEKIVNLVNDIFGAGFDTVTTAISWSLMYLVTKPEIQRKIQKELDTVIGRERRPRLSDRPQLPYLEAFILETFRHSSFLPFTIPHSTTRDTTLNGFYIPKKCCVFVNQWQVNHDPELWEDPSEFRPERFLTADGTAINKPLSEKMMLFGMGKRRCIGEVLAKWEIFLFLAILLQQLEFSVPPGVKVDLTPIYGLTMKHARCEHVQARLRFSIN
# Assay: Inhibition of CYP1A2 (unknown origin)
# Type: ADME
# Conditions: not given
row,pIC50,Structure (SMILES)
1,< 5.52,COc1ccc(-c2ccc(Oc3cccc4c3CCCC4)c(NC(=O)Nc3ccccc3Cl)c2)cc1C(=O)O

# Test system: not listed separately
# Assay: Metabolic stability in mouse liver microsomes assessed as parent compound remaining at 0.5 uM after 10 mins
# Type: ADME, microsome
# Conditions: read-out: Stability
row,"remaining at 10 min, 0.5 µM",Structure (SMILES)
1,69%,COc1ccc(-c2ccc(Oc3cccc4c3CCCC4)c(NC(=O)Nc3ccc(C)cc3)c2)cc1C(=O)O
2,74%,COc1ccc(-c2ccc(Oc3cccc4c3CCCC4)c(NC(=O)Nc3ccccc3Cl)c2)cc1C(=O)O

# Biological target: T2, Cytochrome P450 2C8 (Homo sapiens, UniProt P10632)
# T2 sequence (P10632 whole entry): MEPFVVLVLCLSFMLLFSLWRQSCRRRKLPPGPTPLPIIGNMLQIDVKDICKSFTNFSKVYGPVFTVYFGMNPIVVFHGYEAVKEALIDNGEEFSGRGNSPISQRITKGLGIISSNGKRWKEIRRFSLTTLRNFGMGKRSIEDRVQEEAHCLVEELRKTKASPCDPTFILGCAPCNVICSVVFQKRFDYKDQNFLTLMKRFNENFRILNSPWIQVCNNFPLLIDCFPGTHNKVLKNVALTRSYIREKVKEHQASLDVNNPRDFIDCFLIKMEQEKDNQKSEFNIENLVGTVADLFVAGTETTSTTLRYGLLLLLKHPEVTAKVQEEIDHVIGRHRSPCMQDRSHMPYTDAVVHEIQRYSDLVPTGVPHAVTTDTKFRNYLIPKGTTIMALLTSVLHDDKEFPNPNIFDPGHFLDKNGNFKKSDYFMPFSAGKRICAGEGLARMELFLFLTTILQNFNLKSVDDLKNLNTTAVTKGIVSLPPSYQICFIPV
# Assay: Inhibition of CYP2C8 (unknown origin)
# Type: ADME
# Conditions: not given
row,pIC50,Structure (SMILES)
1,< 5.52,COc1ccc(-c2ccc(Oc3cccc4c3CCCC4)c(NC(=O)Nc3ccccc3Cl)c2)cc1C(=O)O

# Biological target: Cytochrome P450 2D6 (Homo sapiens, UniProt P10635)
# Assay: Inhibition of CYP2D6 (unknown origin)
# Type: ADME
# Conditions: not given
# Chain of Cytochrome P450 2D6 (P10635 whole entry): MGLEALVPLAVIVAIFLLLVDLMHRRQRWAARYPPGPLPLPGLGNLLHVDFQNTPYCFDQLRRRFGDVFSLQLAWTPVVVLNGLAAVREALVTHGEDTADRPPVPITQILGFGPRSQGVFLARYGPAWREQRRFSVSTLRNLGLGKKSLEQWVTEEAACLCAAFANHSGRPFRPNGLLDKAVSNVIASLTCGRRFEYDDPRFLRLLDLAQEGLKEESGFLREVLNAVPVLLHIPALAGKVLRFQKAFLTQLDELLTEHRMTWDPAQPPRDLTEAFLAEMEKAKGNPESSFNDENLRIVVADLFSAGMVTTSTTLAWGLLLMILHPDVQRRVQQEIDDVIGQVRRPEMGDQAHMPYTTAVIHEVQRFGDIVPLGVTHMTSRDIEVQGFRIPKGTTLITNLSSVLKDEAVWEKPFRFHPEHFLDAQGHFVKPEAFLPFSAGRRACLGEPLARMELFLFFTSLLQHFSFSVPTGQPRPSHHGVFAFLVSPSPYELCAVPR
row,pIC50,Structure (SMILES)
1,< 5.52,COc1ccc(-c2ccc(Oc3cccc4c3CCCC4)c(NC(=O)Nc3ccccc3Cl)c2)cc1C(=O)O

# Biological target: T3, Cytochrome P450 3A4 (Homo sapiens, UniProt P08684)
# Assay: Inhibition of CYP3A4 (unknown origin) using BFC as substrate
# Type: ADME
# Conditions: not given
# T3 sequence (P08684 whole entry): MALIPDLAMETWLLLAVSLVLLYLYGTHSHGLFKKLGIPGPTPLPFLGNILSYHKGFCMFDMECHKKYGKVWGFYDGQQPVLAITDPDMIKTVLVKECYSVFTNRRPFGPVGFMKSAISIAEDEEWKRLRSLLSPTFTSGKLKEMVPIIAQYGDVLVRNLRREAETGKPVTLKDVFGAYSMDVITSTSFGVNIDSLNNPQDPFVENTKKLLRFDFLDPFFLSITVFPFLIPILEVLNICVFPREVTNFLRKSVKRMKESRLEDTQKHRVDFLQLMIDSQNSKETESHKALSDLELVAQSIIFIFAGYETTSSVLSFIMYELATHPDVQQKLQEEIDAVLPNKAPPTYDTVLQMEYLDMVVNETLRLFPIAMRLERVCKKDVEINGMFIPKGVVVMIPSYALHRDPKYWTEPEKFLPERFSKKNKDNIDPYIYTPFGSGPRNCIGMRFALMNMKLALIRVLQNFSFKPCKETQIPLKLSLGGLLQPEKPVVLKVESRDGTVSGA
row,pIC50,Structure (SMILES)
1,< 5.52,COc1ccc(-c2ccc(Oc3cccc4c3CCCC4)c(NC(=O)Nc3ccccc3Cl)c2)cc1C(=O)O

# Biological target: T4, Cytochrome P450 2B6 (Homo sapiens, UniProt P20813)
# T4 sequence (P20813 whole entry): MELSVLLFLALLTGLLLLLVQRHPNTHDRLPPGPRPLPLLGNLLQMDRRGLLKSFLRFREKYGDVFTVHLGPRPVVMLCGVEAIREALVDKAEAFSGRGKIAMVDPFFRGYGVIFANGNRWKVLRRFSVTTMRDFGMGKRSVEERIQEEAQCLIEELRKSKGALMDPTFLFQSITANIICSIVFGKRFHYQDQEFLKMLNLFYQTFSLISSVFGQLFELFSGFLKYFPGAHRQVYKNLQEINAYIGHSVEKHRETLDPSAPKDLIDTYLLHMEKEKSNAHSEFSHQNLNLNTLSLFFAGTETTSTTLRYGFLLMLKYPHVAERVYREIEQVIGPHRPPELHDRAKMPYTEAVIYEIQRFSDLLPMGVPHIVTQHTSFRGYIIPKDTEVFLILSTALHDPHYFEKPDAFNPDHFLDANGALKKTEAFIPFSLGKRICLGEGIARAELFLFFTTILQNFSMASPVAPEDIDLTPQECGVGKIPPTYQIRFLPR
# Assay: Inhibition of CYP2B6 (unknown origin)
# Type: ADME
# Conditions: not given
row,pIC50,Structure (SMILES)
1,< 5.52,COc1ccc(-c2ccc(Oc3cccc4c3CCCC4)c(NC(=O)Nc3ccccc3Cl)c2)cc1C(=O)O

# Biological target: T3, Cytochrome P450 3A4
# Assay: Inhibition of CYP3A4 (unknown origin) using BZR as substrate
# Type: ADME
# Conditions: not given
row,pIC50,Structure (SMILES)
1,< 5.52,COc1ccc(-c2ccc(Oc3cccc4c3CCCC4)c(NC(=O)Nc3ccccc3Cl)c2)cc1C(=O)O

# Biological target: Cytochrome P450 2C9 (Homo sapiens, UniProt P11712)
# Assay: Inhibition of CYP2C9 (unknown origin)
# Type: ADME
# Conditions: not given
# Chain of Cytochrome P450 2C9 (P11712 whole entry): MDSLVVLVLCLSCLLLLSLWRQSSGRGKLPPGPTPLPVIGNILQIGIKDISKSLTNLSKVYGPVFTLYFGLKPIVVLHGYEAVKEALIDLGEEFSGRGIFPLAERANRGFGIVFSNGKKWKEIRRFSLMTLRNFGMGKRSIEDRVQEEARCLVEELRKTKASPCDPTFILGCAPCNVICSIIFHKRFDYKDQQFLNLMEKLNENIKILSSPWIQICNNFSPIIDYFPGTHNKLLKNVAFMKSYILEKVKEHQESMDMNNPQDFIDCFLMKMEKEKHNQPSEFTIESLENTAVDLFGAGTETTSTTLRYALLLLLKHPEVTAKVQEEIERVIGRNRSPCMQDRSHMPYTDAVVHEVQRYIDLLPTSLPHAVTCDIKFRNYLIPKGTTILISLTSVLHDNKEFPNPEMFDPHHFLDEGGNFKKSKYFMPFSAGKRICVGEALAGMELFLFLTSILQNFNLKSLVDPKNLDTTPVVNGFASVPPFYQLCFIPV
row,pIC50,Structure (SMILES)
1,< 5.52,COc1ccc(-c2ccc(Oc3cccc4c3CCCC4)c(NC(=O)Nc3ccccc3Cl)c2)cc1C(=O)O
